Reference: PubChem BioAssay (NCI)
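All cell lines were grown in 96-well plates and treated with compound for 48 hours. TGI is the concentration that stops growth completely.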

Columns and labels:
Test in all cases: NCI tumour cell line growth inhibition, 48 h
786-0 renal = test system: 786-0 renal
A498 renal = test system: A498 renal
A549 NSCLC = test system: A549 NSCLC
ACHN renal = test system: ACHN renal
BT-549 breast = test system: BT-549 breast
CAKI-1 renal = test system: CAKI-1 renal
CCRF-CEM leukemia = test system: CCRF-CEM leukemia
COLO 205 colon = test system: COLO 205 colon
DU-145 prostate = test system: DU-145 prostate
EKVX NSCLC = test system: EKVX NSCLC
HCT-116 colon = test system: HCT-116 colon
HCT-15 colon = test system: HCT-15 colon
HL-60(TB) leukemia = test system: HL-60(TB) leukemia
HOP-62 NSCLC = test system: HOP-62 NSCLC
HOP-92 NSCLC = test system: HOP-92 NSCLC
HS 578T breast = test system: HS 578T breast
HT29 colon = test system: HT29 colon
IGROV1 ovarian = test system: IGROV1 ovarian
K-562 leukemia = test system: K-562 leukemia
KM12 colon = test system: KM12 colon
LOX IMVI melanoma = test system: LOX IMVI melanoma
M14 melanoma = test system: M14 melanoma
MALME-3M melanoma = test system: MALME-3M melanoma
MCF7 breast = test system: MCF7 breast
MDA-MB-231 breast = test system: MDA-MB-231 breast
MDA-MB-435 = test system: MDA-MB-435
MDA-N = test system: MDA-N
MOLT-4 leukemia = test system: MOLT-4 leukemia
NCI-H226 lung = test system: NCI-H226 lung
NCI-H23 lung = test system: NCI-H23 lung
NCI-H460 lung = test system: NCI-H460 lung
NCI-H522 lung = test system: NCI-H522 lung
NCI/ADR-RES ovarian = test system: NCI/ADR-RES ovarian
OVCAR-3 ovarian = test system: OVCAR-3 ovarian
OVCAR-4 ovarian = test system: OVCAR-4 ovarian
OVCAR-5 ovarian = test system: OVCAR-5 ovarian
OVCAR-8 ovarian = test system: OVCAR-8 ovarian
PC-3 prostate = test system: PC-3 prostate
RPMI-8226 leukemia = test system: RPMI-8226 leukemia
RXF 393 renal = test system: RXF 393 renal
SF-268 CNS = test system: SF-268 CNS
SF-295 CNS = test system: SF-295 CNS
SF-539 CNS = test system: SF-539 CNS
SK-MEL-2 melanoma = test system: SK-MEL-2 melanoma
SK-MEL-28 melanoma = test system: SK-MEL-28 melanoma
SK-MEL-5 melanoma = test system: SK-MEL-5 melanoma
SK-OV-3 ovarian = test system: SK-OV-3 ovarian
SN12C renal = test system: SN12C renal
SNB-19 CNS = test system: SNB-19 CNS
SNB-75 CNS = test system: SNB-75 CNS
SR leukemia = test system: SR leukemia
SW-620 colon = test system: SW-620 colon
T-47D breast = test system: T-47D breast
TK-10 renal = test system: TK-10 renal
U251 CNS = test system: U251 CNS
UACC-257 melanoma = test system: UACC-257 melanoma
UACC-62 melanoma = test system: UACC-62 melanoma
UO-31 renal = test system: UO-31 renal

Measured: TGI

NC(=S)N/N=C/c1c[nH]c2ccccc12
> 100 µM: 786-0 renal | A498 renal | A549 NSCLC | ACHN renal | BT-549 breast | CAKI-1 renal | CCRF-CEM leukemia | COLO 205 colon | DU-145 prostate | EKVX NSCLC | HCT-116 colon | HCT-15 colon | HL-60(TB) leukemia | HOP-62 NSCLC | HOP-92 NSCLC | HS 578T breast | HT29 colon | IGROV1 ovarian | K-562 leukemia | KM12 colon | LOX IMVI melanoma | M14 melanoma | MALME-3M melanoma | MCF7 breast | MDA-MB-231 breast | MDA-MB-435 | MDA-N | MOLT-4 leukemia | NCI-H226 lung | NCI-H23 lung | NCI-H460 lung | NCI-H522 lung | NCI/ADR-RES ovarian | OVCAR-3 ovarian | OVCAR-4 ovarian | OVCAR-5 ovarian | OVCAR-8 ovarian | PC-3 prostate | RPMI-8226 leukemia | RXF 393 renal | SF-268 CNS | SF-295 CNS | SF-539 CNS | SK-MEL-2 melanoma | SK-MEL-28 melanoma | SK-MEL-5 melanoma | SK-OV-3 ovarian | SN12C renal | SNB-19 CNS | SNB-75 CNS | SR leukemia | SW-620 colon | T-47D breast | TK-10 renal | U251 CNS | UACC-257 melanoma | UACC-62 melanoma | UO-31 renal
